Assay results reported in patent publication US7618997B2, “Diaminofluorescein derivatives” (Sekisui Medical Co., Ltd., priority 2000, dated 2009).
Read-outs that look alike come from different tables or passages of the source.

Assays:
[1] = pH characteristics of triazole derivatives (fluorescence intensity vs pH); assay type: physicochemical; details: 1 μM in sodium phosphate buffers; for pKa: sodium phosphate buffers of various pH, from fluorescence intensity vs pH
Method: Triazole derivatives prepared by the method disclosed in U.S. Pat. No. 5,874,590 (DAF-2T and DAF-5T, the structures thereof are shown below) and DAF-FM T were dissolved at 1 μM in sodium phosphate buffers adjusted to each of the pH values, and fluorescence intensity was measured. The excitation wavelength and fluorescence wavelength were 495-515 (nm) for DAF-2T, 505-520 (nm) for DAF-5T and 495-515 (nm) for DAF-FMT, respectively. […] As for DAF-FM T, a dissociable proton was not present in the triazole ring, and therefore the compound was not influenced by pKa and it gave a constant fluorescence intensity at pH 5.8 or higher.

[2] = Photostability under direct sunlight irradiation; assay type: physicochemical; details: 1 μM in 0.1 M sodium phosphate buffer pH 7.4, direct sunlight; versus DAF-1T, DAF-2T, DAF-4T, DAF-5T
Method: Photostability of the triazole derivatives produced by the method disclosed in U.S. Pat. No. 5,874,590 (DAF-1T, DAF-2T, DAF-4T and DAF-5T, the structures thereof are shown below) and DAF-FM T was tested by direct irradiation with sunlight. The dyes were each dissolved in 0.1 M sodium phosphate buffer (pH 7.4) at a concentration of 1 μM, and the solution was put into vials and exposed to direct sunlight under fine weather for a certain period of time. Samples were collected from the solutions, and fluorescence intensity was measured and compared with respective initial values.

[3] = system: Bovine aorta endothelial cells; assay: Measurement of extracellularly produced nitrogen monoxide; assay type: cell-based; details: 7 μM in PBS(+), 37° C., Ex 500 nm, Em 515 nm, stimulation with A23187, control with inhibitor of nitrogen monoxide synthetase
Method: Bovine aorta endothelial cells were cultured, and the cells were removed with trypsin and collected by centrifugation, and then suspended in 2 ml of PBS(+) in which DAF-FM (7 μM) was dissolved. These cells were transferred to a cell for fluorescence measurement, and fluorescence intensity was measured (Ex.: 500 nm, Em.: 515 nm) at 37° C. with stirring. The cells were stimulated with a calcium ionophore A23187 during the measurement so that the cells generated nitrogen monoxide. As control experiments, an inhibitor of nitrogen monoxide synthetase was added after the above measurement, or alternatively, the measurement was performed in the presence of the inhibitor from the beginning.

[4] = read-out: pKa of the hydroxyl group
[5] = read-out: pKa of the proton of the triazole ring

Row | Compound | pH at which fluorescence intensity is constant ([1]; Ex/Em 495-515 nm) | pKa [1, 4] | photostability (fluorescence intensity compared with initial value) [2] | fluorescence intensity increase on nitrogen monoxide generation by the cells [3] | pKa [1, 5]
1 | Cn1nnc2c3c(ccc21)C1(OC3=O)c2cc(F)c(O)cc2Oc2cc(O)c(F)cc21 [DAF-FM T, 2″,7″-Difluoro-3″,6″-dihydroxy-spiro[1′-methyltriazolo[4′,5′:4,5]isobenzofuran-1(3H),9″-[9H]xanthen]-3-one] | ≥ 5.8 | 4.38 | higher photostability than the other triazole compounds | – | –
2 | CNc1ccc2c(c1N)C(=O)OC21c2cc(F)c(O)cc2Oc2cc(O)c(F)cc21 [DAF-FM, 4-Amino-5-(N-methylamino)-2′,7′-difluoro-3′,6′-dihydroxy-spiro[isobenzofuran-1(3H),9′-[9H]xanthen]-3-one] | – | – | – | increase of fluorescence intensity was caused by nitrogen monoxide | –
3 | O=C1OC2(c3cc(Cl)c(O)cc3Oc3cc(O)c(Cl)cc32)c2cc3nn[nH]c3cc21 [DAF-5T] | – | 4.59 | – | – | 7.41
4 | O=C1OC2(c3ccc(O)cc3Oc3cc(O)ccc32)c2cc3nn[nH]c3cc21 [DAF-2T] | – | 6.27 | – | – | 7.94
